In ChEMBL document CHEMBL3098003, “Structure-based design of 2-aminopyridine oxazolidinones as potent and selective tankyrase inhibitors” (ACS Med Chem Lett, 2013):

What was measured:
Tankyrase 1/2 [1] = biological target: T1, Tankyrase 1/2 (Homo sapiens, UniProt Q9H2K2+O95271); experiment: Inhibition of tankyrase in human SW480 cells assessed as degradation of total beta-catenin after 40 to 48 hrs; type: cell-based
T1 sequence (Q9H2K2 whole entry): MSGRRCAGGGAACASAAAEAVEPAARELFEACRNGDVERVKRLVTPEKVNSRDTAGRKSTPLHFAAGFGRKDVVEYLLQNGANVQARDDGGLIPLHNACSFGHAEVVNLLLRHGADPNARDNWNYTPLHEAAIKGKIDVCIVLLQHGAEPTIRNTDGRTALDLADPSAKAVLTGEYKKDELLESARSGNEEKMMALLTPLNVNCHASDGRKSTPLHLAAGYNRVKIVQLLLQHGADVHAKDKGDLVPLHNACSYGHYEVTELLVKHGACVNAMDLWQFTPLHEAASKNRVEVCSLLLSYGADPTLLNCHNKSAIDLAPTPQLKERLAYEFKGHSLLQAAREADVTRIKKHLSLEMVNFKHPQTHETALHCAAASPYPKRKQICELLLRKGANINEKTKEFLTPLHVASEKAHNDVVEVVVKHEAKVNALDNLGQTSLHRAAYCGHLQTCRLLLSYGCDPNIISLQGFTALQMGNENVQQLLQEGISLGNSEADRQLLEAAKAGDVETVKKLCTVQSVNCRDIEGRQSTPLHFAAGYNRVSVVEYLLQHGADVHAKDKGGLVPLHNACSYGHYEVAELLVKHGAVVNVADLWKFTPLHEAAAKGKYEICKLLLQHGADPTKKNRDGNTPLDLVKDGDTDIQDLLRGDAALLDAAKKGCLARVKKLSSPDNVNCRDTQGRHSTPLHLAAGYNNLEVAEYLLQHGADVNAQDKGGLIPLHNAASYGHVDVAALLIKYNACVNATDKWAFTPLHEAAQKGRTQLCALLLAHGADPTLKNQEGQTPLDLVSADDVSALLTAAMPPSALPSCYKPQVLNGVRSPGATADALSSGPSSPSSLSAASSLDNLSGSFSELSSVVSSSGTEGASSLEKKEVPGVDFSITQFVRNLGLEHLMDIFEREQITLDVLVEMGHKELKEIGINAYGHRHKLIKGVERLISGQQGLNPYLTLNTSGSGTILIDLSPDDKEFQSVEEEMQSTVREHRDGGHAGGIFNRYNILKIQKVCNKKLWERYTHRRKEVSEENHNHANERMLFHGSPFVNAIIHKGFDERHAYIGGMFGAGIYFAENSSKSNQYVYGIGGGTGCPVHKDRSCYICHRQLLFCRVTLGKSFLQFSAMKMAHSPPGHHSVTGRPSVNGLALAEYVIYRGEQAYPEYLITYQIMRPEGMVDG
T1 sequence (O95271 whole entry): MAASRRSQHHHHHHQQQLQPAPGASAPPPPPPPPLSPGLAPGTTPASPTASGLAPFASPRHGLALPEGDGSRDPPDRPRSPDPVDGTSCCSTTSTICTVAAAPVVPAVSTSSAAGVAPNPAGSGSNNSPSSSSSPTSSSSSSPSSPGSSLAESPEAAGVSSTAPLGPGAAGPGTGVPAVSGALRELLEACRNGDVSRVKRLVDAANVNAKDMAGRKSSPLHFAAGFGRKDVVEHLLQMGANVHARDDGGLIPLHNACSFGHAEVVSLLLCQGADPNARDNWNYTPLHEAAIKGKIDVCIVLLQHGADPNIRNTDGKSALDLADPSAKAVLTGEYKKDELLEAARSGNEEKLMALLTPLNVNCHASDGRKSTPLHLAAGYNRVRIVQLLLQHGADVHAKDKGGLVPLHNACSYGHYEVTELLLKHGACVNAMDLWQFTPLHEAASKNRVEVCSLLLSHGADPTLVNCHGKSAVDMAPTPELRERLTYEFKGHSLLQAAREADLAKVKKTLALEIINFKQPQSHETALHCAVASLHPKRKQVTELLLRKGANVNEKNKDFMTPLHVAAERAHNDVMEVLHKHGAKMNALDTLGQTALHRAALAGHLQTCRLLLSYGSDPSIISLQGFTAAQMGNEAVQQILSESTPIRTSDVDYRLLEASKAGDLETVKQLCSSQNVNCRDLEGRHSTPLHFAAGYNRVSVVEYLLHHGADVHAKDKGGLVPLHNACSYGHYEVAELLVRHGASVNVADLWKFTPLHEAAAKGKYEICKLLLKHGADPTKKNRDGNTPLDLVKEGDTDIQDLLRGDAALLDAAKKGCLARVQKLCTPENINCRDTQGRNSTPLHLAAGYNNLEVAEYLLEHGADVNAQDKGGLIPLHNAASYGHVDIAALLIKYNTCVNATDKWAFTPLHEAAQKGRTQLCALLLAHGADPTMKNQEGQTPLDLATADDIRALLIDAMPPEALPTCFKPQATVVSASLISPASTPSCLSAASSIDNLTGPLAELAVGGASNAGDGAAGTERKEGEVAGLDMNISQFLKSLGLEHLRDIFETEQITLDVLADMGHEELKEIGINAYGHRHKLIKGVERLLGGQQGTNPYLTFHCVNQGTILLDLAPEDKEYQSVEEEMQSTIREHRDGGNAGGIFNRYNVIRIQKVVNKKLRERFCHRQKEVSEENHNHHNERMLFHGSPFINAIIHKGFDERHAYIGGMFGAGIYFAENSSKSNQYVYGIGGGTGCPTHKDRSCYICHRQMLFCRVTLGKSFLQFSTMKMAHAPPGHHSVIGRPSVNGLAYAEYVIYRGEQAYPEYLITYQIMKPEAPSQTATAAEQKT

[2] = biological target: T2, Poly [ADP-ribose] polymerase tankyrase-1 (Homo sapiens, UniProt O95271); experiment: Inhibition of recombinant 6XHis-tagged TNKS1 (1091 to 1325) (unknown origin) after 60 mins by spectrophotometric analysis
T2 sequence (O95271 whole entry): T1 sequence (O95271 whole entry)

Tankyrase 1/2 [3] = biological target: T1, Tankyrase 1/2; experiment: Inhibition of tankyrase in human DLD1 cells assessed as inhibition of Wnt gene transcription after 40 to 48 hrs by STF assay; type: cell-based; settings: dld-1
Tankyrase 1/2 [4] = biological target: T1, Tankyrase 1/2; experiment: Inhibition of tankyrase in human SW480 cells assessed as axin2 accumulation after 24 hrs by Hoechst dye-based assay; type: cell-based
[5] = biological target: Poly [ADP-ribose] polymerase 2 (Homo sapiens, UniProt Q9UGN5); experiment: Inhibition of PARP2 (unknown origin)
Sequence of Poly [ADP-ribose] polymerase 2 (Q9UGN5 whole entry): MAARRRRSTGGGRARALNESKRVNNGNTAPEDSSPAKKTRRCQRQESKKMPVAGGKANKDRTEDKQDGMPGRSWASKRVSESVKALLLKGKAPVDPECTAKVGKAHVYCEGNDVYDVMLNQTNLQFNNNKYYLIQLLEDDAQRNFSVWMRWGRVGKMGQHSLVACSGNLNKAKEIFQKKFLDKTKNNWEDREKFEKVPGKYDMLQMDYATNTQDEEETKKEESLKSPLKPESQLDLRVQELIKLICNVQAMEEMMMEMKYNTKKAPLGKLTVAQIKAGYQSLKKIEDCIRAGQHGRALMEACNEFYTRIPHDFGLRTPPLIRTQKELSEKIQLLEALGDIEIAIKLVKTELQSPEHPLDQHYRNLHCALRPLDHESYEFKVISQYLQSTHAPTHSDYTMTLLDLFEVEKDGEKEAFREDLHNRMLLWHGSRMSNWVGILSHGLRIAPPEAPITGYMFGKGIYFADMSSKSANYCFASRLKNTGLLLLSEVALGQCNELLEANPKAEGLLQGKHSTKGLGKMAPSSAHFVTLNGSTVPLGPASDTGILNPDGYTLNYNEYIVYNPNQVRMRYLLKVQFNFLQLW

[6] = biological target: Poly [ADP-ribose] polymerase 1 (Homo sapiens, UniProt P09874); experiment: Inhibition of PARP1 (unknown origin)
Sequence of Poly [ADP-ribose] polymerase 1 (P09874 whole entry): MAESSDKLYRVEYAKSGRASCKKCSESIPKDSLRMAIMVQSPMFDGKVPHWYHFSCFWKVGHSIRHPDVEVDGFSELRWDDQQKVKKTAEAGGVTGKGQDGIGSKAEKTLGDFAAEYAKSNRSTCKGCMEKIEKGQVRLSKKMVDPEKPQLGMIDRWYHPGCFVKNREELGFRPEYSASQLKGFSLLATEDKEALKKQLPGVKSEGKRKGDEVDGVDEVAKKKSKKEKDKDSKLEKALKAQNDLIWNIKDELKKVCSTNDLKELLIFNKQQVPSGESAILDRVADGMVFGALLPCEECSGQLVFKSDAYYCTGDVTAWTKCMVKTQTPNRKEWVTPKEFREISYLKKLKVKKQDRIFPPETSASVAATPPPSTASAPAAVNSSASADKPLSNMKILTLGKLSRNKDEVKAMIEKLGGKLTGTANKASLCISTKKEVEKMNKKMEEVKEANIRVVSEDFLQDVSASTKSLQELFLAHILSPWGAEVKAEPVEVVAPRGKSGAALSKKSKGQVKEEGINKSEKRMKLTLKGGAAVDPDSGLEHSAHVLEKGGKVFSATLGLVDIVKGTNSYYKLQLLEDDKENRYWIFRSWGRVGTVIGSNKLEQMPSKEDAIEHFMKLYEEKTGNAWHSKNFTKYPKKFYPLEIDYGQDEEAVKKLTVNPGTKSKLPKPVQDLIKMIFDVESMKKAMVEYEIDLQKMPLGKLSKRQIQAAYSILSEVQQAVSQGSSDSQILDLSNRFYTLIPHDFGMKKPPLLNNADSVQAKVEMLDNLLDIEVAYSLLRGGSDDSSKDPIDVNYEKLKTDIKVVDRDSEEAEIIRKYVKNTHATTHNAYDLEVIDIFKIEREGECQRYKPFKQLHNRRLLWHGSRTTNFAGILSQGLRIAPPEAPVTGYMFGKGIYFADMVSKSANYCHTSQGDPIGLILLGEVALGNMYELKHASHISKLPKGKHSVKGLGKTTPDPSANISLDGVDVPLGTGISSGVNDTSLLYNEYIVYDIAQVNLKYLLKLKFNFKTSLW

SMILES	IC50 (Tankyrase 1/2 [1])	IC50 [2]	IC50 (Tankyrase 1/2 [3])	EC50 (Tankyrase 1/2 [4])	IC50 [5]	IC50 [6]
CC1(C)CC(=O)Nc2cc(NC(=O)c3cc(-c4ccc5nc(N)ncc5c4)ccc3F)ccc21	2000 nM	150 nM	–	–	–	–
CC1(C)OC(=O)N([C@H]2CC[C@H](c3ccc(N)nc3)CC2)[C@H]1c1ccccc1	–	148 nM	–	–	–	–
CC1(C)OC(=O)N([C@H]2CC[C@H](c3cnc(N)c(C#N)c3)CC2)[C@H]1c1ccccc1	392 nM	9 nM	43 nM	474 nM	> 170000 nM	> 85000 nM
